According to patent publication US6822146B2, “Sulfonylurea-tolerant sunflower line M7” (priority 2000, dated 2004):
Structures can show the parent of a compound that is named as a salt.

How the values were obtained:
[1] = tested on: BC4-M5M11; assay: Test B greenhouse phytotoxicity, BC4-M5M11; type: in vivo, sunflower
Method: (§1) A greenhouse experiment was conducted to evaluate the spectrum of tolerance of three homozygous resistant mutants to various herbicides inhibiting acetolactate synthase (ALS) as their mode of action. The inbred lines tested were the 5th generation self-pollinated maintainers, M5M7, M5M11 and M5M12, as well as the 4th generation male sterile back-crosses BC4-M5M7, BC4-M5M11 and BC4-M5M12. Treatments of formulated herbicides were applied post-emergence at the 4-leaf stage. Application rates of the test herbicides were chosen to coincide with the rates commonly used in the crops for which they are registered. The application rate of imazethapyr was chosen to match the rate recommended to control parasitic weeds in sunflowers by L. García-Torres et al., Weed Technology 1995, 9, 819-824. Wild type H89 inbred sunflower was not included in this test, because the many of the tested herbicides are known to be efficacious in controlling volunteer sunflower as a weed. Treatments were replicated twice. […] A rating of 0% phytotoxicity means no crop injury.

[2] = tested on: homozygous progeny of the three mutant sources; type: in vivo, sunflower; conditions: Test B application rates, post-emergence
Method: as §1

[3] = tested on: M5M7; assay: Test B greenhouse phytotoxicity, M5M7; type: in vivo, sunflower
Method: as §1

[4] = tested on: M5M11; assay: Test B greenhouse phytotoxicity, M5M11; type: in vivo, sunflower
Method: as §1

[5] = tested on: BC4-M5M7; assay: Test B greenhouse phytotoxicity, BC4-M5M7; type: in vivo, sunflower
Method: as §1

[6] = tested on: M5M12; assay: Test B greenhouse phytotoxicity, M5M12; type: in vivo, sunflower
Method: as §1

[7] = tested on: BC4-M5M12; assay: Test B greenhouse phytotoxicity, BC4-M5M12; type: in vivo, sunflower
Method: as §1

[8] = tested on: BC4-M5M7 × PHA155; assay: Test C field phytotoxicity, BC4-M5M7 × PHA155; type: in vivo, sunflower
Description: (§2) A rating of 0% phytotoxicity means no crop injury.

[9] = tested on: BC4-M5M12 × PHA155; assay: Test C field phytotoxicity, BC4-M5M12 × PHA155; type: in vivo, sunflower
Description: as §2

[10] = tested on: BC4-M5M12 × PHA155 hybrid; assay: Test E injury to sunflower hybrid; type: in vivo; conditions: in vivo
Method: (§3) Based on the results from Test D, a modified protocol was developed to include three timings of post-emergence treatment. The hybrid BC4-M5M12 (female parent)×PHA155 restorer line (male parent) described in Test C was used in this test. Various herbicide programs were tested using three replications. […] Seed coatings of these formulated herbicides were applied to 6 kg of seeds in such amount that considering the distribution of the coated seeds in each pot, the herbicide active ingredient (a.i.) application rates per hectare were as indicated.
(§4) The treatments were applied similar to the methods described for Test D. Pre-emergence applications were broadcast only, not soil incorporated. For pre-emergence application, the pots were sprayed using the high rates of the herbicides two days after sowing the sunflower seeds. Post-emergence treatments were applied at the 4-6 leaf stage of sunflower (corresponding to early stage of Orobanche attachment; identified as “T1”), the 6-8 leaf stage of sunflower (corresponding to the mid stage of Orobanche attachment; nodules <5 mm diameter; identified as “T2”) and 8-12 leaf stage of sunflower (corresponding to late stage of Orobanche attachment; identified as “T3”). The mid-stage applications included the high as well as low application rates of each herbicide.
(§5) For comparison were also included in this test other acetolactate synthase-inhibiting herbicides reported in the literature as giving good weed control of Orobanche (L. García-Torres et al., Weed Research 1994, 34, 395-402; L. García-Torres et al., Weed Technology 1995, 9, 819-824; J. Hershenhorn et al., Weed Technology 1998, 12, 108-114).

[11] = tested on: Orobanche cumana; assay: Test E control of Orobanche cumana in resistant sunflower hybrid; type: in vivo
Method: The effect of the various treatments was evaluated 35 days after sowing. The sunflower roots were cleaned by washing in water, and the presence of Orobanche nodules was determined visually and by weighing root wet mass in comparison to check plants free of Orobanche infestation. […] The nodules caused by Orobanche increased root weight, and a correlation (r=0.7) was found between visual scores and weight measurements. Thus the weighing technique could be used to corroborate visual efficacy scorings. Orobanche emergence was also scored but found to be less useful to evaluate treatment efficiency at the evaluation timing of this test.
as §3, §4, §5

[12] = tested on: BC3-M4M12; assay: Test A field trial, phytotoxicity, variety I; type: in vivo, sunflower; conditions: variety I; 30 g a.i./ha post-emergence
Description: (§6) To generate the hybrids C, D and E, the fourth generation self-pollinated maintainer mutant lines M4M12, M4M11 and M4M7 were chemically sterilized by applying at the bud “star” flower stage a small amount of gibberellic acid solution to sterilize the pollen according to the general method described in Sunflower Science Technology, J. F. Carter ed. (Number 19 in the series “Agronomy”) pp. 339-386. This treatment enables maintainer plants to behave as CMS inbred lines and allows the production of heterozygous resistant hybrids, with the herbicide resistant source coming from the female side. Such crosses allowed evaluating the sexual effect of the mutation source when introduced on the female side of a cross as described in crosses C, D and E versus the male side of a cross as described in crosses F, G and H. Labels I, J and K identify third generation CMS mutant lines crossed with fourth generation maintainer lines to maintain the highly heritable mutant trait in a male sterile homozygous resistant environment. One skilled in sunflower breeding art understands the meaning of such crosses.
as §2

[13] = tested on: GA-M4M11 × RHA274; assay: Test A field trial, phytotoxicity, variety D; type: in vivo, sunflower; conditions: variety D; 30 g a.i./ha post-emergence
Description: as §6, §2

[14] = tested on: GA-M4M12 × RHA274; assay: Test A field trial, phytotoxicity, variety C; type: in vivo, sunflower; conditions: variety C; 30 g a.i./ha post-emergence
Description: as §6, §2

[15] = tested on: BC3-M4M7; assay: Test A field trial, phytotoxicity, variety K; type: in vivo, sunflower; conditions: variety K; 30 g a.i./ha post-emergence
Description: as §6, §2

[16] = tested on: Homozygous resistant inbred lines, BC3-M4M12 (I), BC3-M4M11 (J) and BC3-M4M7 (K); assay: Test A summary, homozygous resistant inbred lines; conditions: Test A application rates
Method: In a small field trial, the sunflower varieties described in Table 4 were sprayed post-emergence with a variety of sulfonylurea herbicide treatments.
Broadcast post-emergence applications of formulated sulfonylurea herbicides were performed at the 6-leaf development stage using four randomly distributed replications. Application rates were chosen to match the usual use rates of these herbicides in the crops they are registered in Europe. All herbicides except for metsulfuron-methyl were sprayed in combination with Citowet® non-ionic ethoxylated alcohol at 0.25% volume of formulated product per volume of water applied per hectare.
The evaluation of the maximum (i.e. peak) injury to sunflower varieties by sulfonylurea herbicides was measured by visual ratings, which are listed in Table 5. A rating of 0% phytotoxicity means no crop injury. […] A rating of 100% means the complete destruction of all plants.

[17] = tested on: GA-M4M7 × RHA274; assay: Test A field trial, phytotoxicity, variety E; type: in vivo, sunflower; conditions: variety E; 30 g a.i./ha post-emergence
Description: as §6, §2

[18] = tested on: H89A × M4M7; type: in vivo, sunflower; conditions: variety H; 30 g a.i./ha post-emergence
Description: as §6, §2

[19] = tested on: H89A × M4M11; type: in vivo, sunflower; conditions: variety G; 30 g a.i./ha post-emergence
Description: as §6, §2

[20] = tested on: H89A × M4M12; type: in vivo, sunflower; conditions: variety F; 30 g a.i./ha post-emergence
Description: as §6, §2

[21] = tested on: Inbred line control: H89A; type: in vivo, sunflower; conditions: variety B; 30 g a.i./ha post-emergence
Description: as §6, §2

[22] = tested on: Hybrid control: H89A × RHA274; type: in vivo, sunflower; conditions: variety A; 30 g a.i./ha post-emergence
Description: as §6, §2

[23] = tested on: BC3-M4M11; assay: Test A field trial, phytotoxicity, variety J; type: in vivo, sunflower; conditions: variety J; 30 g a.i./ha post-emergence
Description: as §6, §2

[24] = postemergence 6.25 g a.i./ha, 7 DAT
[25] = postemergence 6.25 g a.i./ha, 15 DAT
[26] = postemergence 6.25 g a.i./ha, 30 DAT
[27] = postemergence 12.5 g a.i./ha, 7 DAT
[28] = postemergence 12.5 g a.i./ha, 15 DAT
[29] = postemergence 12.5 g a.i./ha, 30 DAT

SMILES	Maximum Phytotoxicity ([1]; in vivo) [%]	tolerance of the mutants [2]	Maximum Phytotoxicity ([3]; in vivo) [%]	Maximum Phytotoxicity ([4]; in vivo) [%]	Maximum Phytotoxicity ([5]; in vivo) [%]	Maximum Phytotoxicity ([6]; in vivo) [%]	Maximum Phytotoxicity ([7]; in vivo) [%]	also measured
COc1cc(OC)nc(NC(=O)NS(=O)(=O)N(C)S(C)(=O)=O)n1 [Amidosulfuron, amidosulfuron]	57.5	somewhat sensitive	52.5	60	47.5	45	55	
CCOC(=O)c1ccccc1S(=O)(=O)NC(=O)Nc1nc(Cl)cc(OC)n1 [Chlorimuron-ethyl, chlorimuron-ethyl]								Phytotoxicity Rating After Treatment [8, 24]: 83%; Phytotoxicity Rating After Treatment [8, 25]: 73%; Phytotoxicity Rating After Treatment [8, 26]: 67%; Phytotoxicity Rating After Treatment [8, 27]: 85%; Phytotoxicity Rating After Treatment [8, 28]: 83%; Phytotoxicity Rating After Treatment [8, 29]: 83%; Phytotoxicity Rating After Treatment [9, 24]: 70%; Phytotoxicity Rating After Treatment [9, 25]: 80%; Phytotoxicity Rating After Treatment [9, 26]: 68%; Phytotoxicity Rating After Treatment [9, 27]: 80%; Phytotoxicity Rating After Treatment [9, 28]: 90%; Phytotoxicity Rating After Treatment [9, 29]: 88%
COC(=O)c1ccc(C(F)(F)F)nc1S(=O)(=O)NC(=O)Nc1nc(OC)cc(OC)n1 [Flupyrsulfuron-methyl-sodium]	60	somewhat sensitive	62.5	50	42.5	57.5	50	
COC(=O)c1c(Cl)nn(C)c1S(=O)(=O)NC(=O)Nc1nc(OC)cc(OC)n1 [Halosulfuron-methyl, halosulfuron-methyl]		somewhat sensitive						Maximum Phytotoxicity ([1]; BC4-M5M11, 45 g a.i./ha post-emergence 4-leaf stage): 65%; Maximum Phytotoxicity ([3]; M5M7, 45 g a.i./ha post-emergence 4-leaf stage): 50%; Maximum Phytotoxicity ([4]; M5M11, 45 g a.i./ha post-emergence 4-leaf stage): 60%; Maximum Phytotoxicity ([5]; BC4-M5M7, 45 g a.i./ha post-emergence 4-leaf stage): 60%; Maximum Phytotoxicity ([6]; M5M12, 45 g a.i./ha post-emergence 4-leaf stage): 60%; Maximum Phytotoxicity ([7]; BC4-M5M12, 45 g a.i./ha post-emergence 4-leaf stage): 65%
CCc1cnc(C2=NC(C)(C(C)C)C(=O)N2)c(C(=O)O)c1 (stereo not shown) [Imazethapyr (ammonium salt), Imazethapyr]	25	marginal tolerance	22.5	30	20	22.5	30	Injury [10]: 0%; relative efficacy in controlling Orobanche ([11]; Test E rates, metsulfuron-methyl compared with tribenuron-methyl): less efficacious in controlling Orobanche; Control ([11]; pre-emergence 40 g a.i./ha): 60%
COC(=O)c1ccccc1S(=O)(=O)NC(=O)Nc1nc(OC(F)F)cc(OC(F)F)n1 [Primisulfuron-methyl, primisulfuron-methyl]								Maximum Phytotoxicity [12]: 35%; Maximum Phytotoxicity [13]: 75%; Maximum Phytotoxicity [14]: 71%; Maximum Phytotoxicity [15]: 51%; tolerance of homozygous resistant lines compared with heterozygous hybrids [16]: the homozygous resistant lines were more tolerant; tolerance of homozygous resistant inbred lines I, J, K ([16]; triflusulfuron-methyl at 20 g a.i./ha): less susceptible than the standards; Maximum Phytotoxicity [17]: 74%; Maximum Phytotoxicity [18]: 69%; Maximum Phytotoxicity [19]: 73%; Maximum Phytotoxicity [20]: 66%; Maximum Phytotoxicity [21]: 100%; Maximum Phytotoxicity [22]: 100%; Maximum Phytotoxicity [23]: 55%
COc1cc(OC)nc(Sc2cccc(Cl)c2C(=O)O)n1 [Pyrithiobac-sodium]	42.5	somewhat sensitive	37.5	50	35	40	40	
CCS(=O)(=O)c1nc2ccccn2c1S(=O)(=O)NC(=O)Nc1nc(OC)cc(OC)n1 [Sulfosulfuron]	57.5	somewhat sensitive	50	60	47.5	65	50	
